Results as given in ChEMBL document CHEMBL5244246, “Recent advances in chemistry and bioactivity of marine cyanobacteria Moorea species” (Eur J Med Chem, 2020).
≈ marks a conversion by molar mass, not a printed value.

How the values were obtained:
[1] = tested on: HeLa; assay: Cytotoxicity against human HeLa cells assessed as inhibition of cell growth incubated for 48 hrs by WST-8 colorimetric assay; type: functional, cell-based
[2] = tested on: Nitzschia amabilis; assay: Growth inhibition of marine diatom assessed as inhibition rate at 10 ug/ml relative to control; type: functional
[3] = Toxicity in brine shrimp assessed as lethal dose; details: artemia salina; read-out: LD50 (the source's name)
[4] = tested on: N2a; assay: Cytotoxicity against mouse Neuro2a cells assessed as inhibition of cell growth; type: functional, cell-based; details: Mus musculus, N2a
[5] = tested on: NCI-H460; assay: Cytotoxicity against human NCI-H460 cells; type: functional, cell-based
[6] = tested on: L1210; assay: Cytotoxicity against mouse L1210 cells assessed as inhibition of cell growth at 10 ug/mL relative to control; type: functional; details: for inhibition at 10 µg/mL: Mus musculus, L1210, dose 10 µg/ml; for inhibition (INH): dose 10 µg/ml
[7] = tested on: HT-29; assay: Cytotoxicity against human HT-29 cells assessed as cell growth inhibition; type: functional
[8] = tested on: MDA-MB-231; assay: Cytotoxicity against human MDA-MB-231 cells assessed as cell growth inhibition; type: functional
[9] = tested on: Mycobacterium tuberculosis; assay: Antimycobacterial activity against Mycobacterium tuberculosis H37Rv assessed as inhibition of bacterial growth at 12.5 ug/ml relative to control; type: functional
[10] = tested on: A549; assay: Cytotoxicity against human A549 cells assessed as cell growth inhibition; type: functional, cell-based
[11] = tested on: L1210; assay: Cytotoxicity against mouse L1210 cells assessed as inhibition of cell growth; type: functional, cell-based
[12] = target: Protein kinase C delta type (Homo sapiens, UniProt Q05655); assay: Inhibition of [3H]-PDBu binding to PKCdelta C1B domain (unknown origin) by competitive binding assay
[13] = Toxicity in shrimp assessed as lethal dose; details: palaemon paucidens
[14] = tested on: MCF7; assay: Cytotoxicity against human MCF7 cells assessed as inhibition of cell growth; type: functional, cell-based
[15] = species on record: Homo sapiens; assay: Inhibition of Voltage-gated sodium channel (unknown origin) at 3 ug/ml incubated for 18 hrs by cell-based bioassay relative to control; details: dose 3.0 µg/ml

Sequence of Protein kinase C delta type (Q05655 whole entry, the tested form may be a part): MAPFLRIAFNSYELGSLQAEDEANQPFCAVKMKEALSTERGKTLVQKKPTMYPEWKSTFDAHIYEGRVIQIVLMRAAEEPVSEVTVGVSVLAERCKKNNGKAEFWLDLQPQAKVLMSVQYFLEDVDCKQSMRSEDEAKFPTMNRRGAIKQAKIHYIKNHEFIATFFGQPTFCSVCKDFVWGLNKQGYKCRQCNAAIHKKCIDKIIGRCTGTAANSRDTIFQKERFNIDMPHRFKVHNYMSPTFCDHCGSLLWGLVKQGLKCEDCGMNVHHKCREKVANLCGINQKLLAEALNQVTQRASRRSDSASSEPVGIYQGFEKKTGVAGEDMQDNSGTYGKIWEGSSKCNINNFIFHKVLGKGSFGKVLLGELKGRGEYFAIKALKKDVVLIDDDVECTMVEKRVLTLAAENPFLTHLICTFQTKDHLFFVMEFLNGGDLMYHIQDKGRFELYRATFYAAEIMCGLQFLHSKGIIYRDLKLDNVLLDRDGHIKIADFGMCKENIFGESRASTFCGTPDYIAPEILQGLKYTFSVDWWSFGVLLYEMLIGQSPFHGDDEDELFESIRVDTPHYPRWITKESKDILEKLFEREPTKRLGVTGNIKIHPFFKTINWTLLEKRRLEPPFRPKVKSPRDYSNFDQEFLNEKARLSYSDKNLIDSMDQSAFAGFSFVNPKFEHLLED

In the case of `CC[C@@H](C)[C@H]1C(=O)N2CCC[C@H]2C(=O)O[C@H](C(C)(C)C)C[C@@H](C)C[C@H](O)[C@H](C)C2=N[C@@H](/C=C(\C)C(=O)N[C@@H](Cc3ccc(OCCCCCCCn4cc(-c5ccccc5)nn4)cc3)C(=O)N(C)[C@@H](C)C(=O)N1C)CS2`, the IC50 [1] is reported as 0.05 µM.

`CO[C@@H](CC[C@H](C)[C@@H]1CC=C[C@]2(O1)[C@H](C(=O)O[C@@H]1CC(=O)O[C@@H]1C)C(=O)[C@H](C)CC2(C)C)c1cc(O)ccc1Br` showed an inhibition at 10 µg/mL [2] of 30%.

`CCC1CC(C)CC(=O)N(C)/C=C/CCC(C)C(=O)N[C@@H](C(C)C)C(=O)N(C)[C@@H](Cc2ccccc2)C(=O)N(C)[C@@H]([C@@H](C)O)C(=O)N(C)[C@@H](Cc2ccccc2)C(=O)O1` (stereo not given in full) showed an LC50 [3] of 9 µM and an IC50 [4] of 6 µM.

For `CC[C@H](C)[C@H]1C(=O)N(C)[C@@H](C)C(=O)O[C@H](C(C)(C)C)C[C@@H](C)C[C@H](O)[C@H](C)C2=NC(/C=C(\C)C(=O)N[C@@H](Cc3ccc(OC)cc3)C(=O)N(C)[C@@H](C)C(=O)N1C)CS2` (stereo not given in full), the IC50 [5] was 0.002 µM.

For `CCCCCCCCCCC[C@]1(CO)CCCC(=O)O1` [TANIKOLIDE], the LC50 [3] was 3.6 µg/mL.

`CO[C@@H](CC[C@H](C)[C@H]1O[C@]23C[C@H](OC(=O)C[C@H]([C@@H](C)O)OC(=O)CC(=C(C)CC2(C)C)O3)[C@@H]1C)c1cc(O)ccc1Br` showed an inhibition at 10 µg/mL [2] of 30%.

With `CO[C@@H](CC[C@H](C)[C@H]1O[C@@]23C[C@H](OC(=O)C[C@H]([C@@H](C)O)OC(=O)C[C@](O)(O2)[C@H](C)CC3(C)C)[C@@H]1C)c1cccc(O)c1` [DEBROMOAPLYSIATOXIN] the inhibition at 10 µg/mL [2] was 30%.

For `CO[C@@H](CC[C@H](C)[C@H]1O[C@@]23C[C@H](OC(=O)C[C@H]([C@@H](C)O)OC(=O)/C=C(\O2)[C@@](C)(OO)CC3(C)C)[C@@H]1C)c1cccc(O)c1`, the inhibition at 10 µg/mL [6] was 10%.

With `CO[C@@H](CC[C@H](C)[C@H]1O[C@@]23C[C@H](OC(=O)C[C@H]([C@@H](C)O)OC(=O)/C=C(\O2)[C@@](C)(OO)CC3(C)C)[C@@H]1C)c1cc(O)ccc1Br` the inhibition at 10 µg/mL [2] was 30%.

For `CCCCCCC[C@@H](C/C=C/CCC(=O)O)OC`, the GI50 [7] was 40 µM, the GI50 [8] was 40 µM and the inhibition at 12.5 µg/mL [9] was 65%. The GI50 [10] was 40 µM.

Work on `C=C[C@@](C)(CCC=C(C)C)c1ccc2c3c(c[nH]c13)C[C@@H](CO)NC(=O)[C@H](C(C)C)N2C` yielded an IC50 [11] of 8.1 µM, a Ki [12] of 0.00011 µM and an LD100 [13] of 5 mg/kg.

With `CO[C@@H](CC[C@H](C)[C@H]1O[C@]23C[C@H](OC(=O)C[C@H]([C@@H](C)O)OC(=O)C(O)C(=C(C)CC2(C)C)O3)[C@@H]1C)c1cc(O)ccc1Br` (stereo not given in full) the inhibition at 10 µg/mL [6] was 10%, the “inhibition (INH)” value [6] was 20% and the inhibition at 10 µg/mL [2] was 30%.

Molecule `CO[C@@H](CC[C@H](C)[C@H]1O[C@@]23C[C@H](OC(=O)C[C@H]([C@@H](C)O)OC(=O)/C=C(\O2)[C@@](C)(O)CC3(C)C)[C@@H]1C)c1cccc(O)c1` has an inhibition at 10 µg/mL [2] of 30%.

With `CO[C@@H](CC[C@H](C)[C@H]1O[C@@]23C[C@H](OC(=O)C[C@H]([C@@H](C)O)OC(=O)/C=C(\O2)[C@@](C)(O)CC3(C)C)[C@@H]1C)c1cc(O)ccc1Br` the inhibition at 10 µg/mL [6] was 10%, the “inhibition (INH)” value [6] was 20% and the inhibition at 10 µg/mL [2] was 30%.

Molecule `O=c1ccn([C@H]2C[C@H](O)[C@@H](CO)O2)c(=O)n1CCc1ccccc1` has an IC50 [14] of 18.2 µg/mL (≈ 54.8 µM).

Work on `C=CC/C=C/N(C)C(=O)CCCCCCCC/C=C/[C@H](CSSC[C@@H](/C=C/CCCCCCCCC(=O)N(C)/C=C/CC=C)NC(C)=O)NC(C)=O` yielded an IC50 [4] of 1.4 µg/mL.

Molecule `CCCCCCCC[C@@H](C/C=C/CCC(=O)NC/C(=C/Cl)C1=CCCCC1=O)OC` has an IC50 [5] of 1.1 µM and an IC50 [4] of 0.49 µM.

`CCCCCCCC[C@@H](C/C=C/CCC(=O)N(C)C/C(=C\Cl)C/C(=C\C(=O)N1CC(OC)=CC1=O)OC)OC` showed an IC50 [11] of 2.9 µM.

In the case of `C=C[C@@](C)(CCC=C(C)C)c1ccc2c3c1NC(=O)[C@@]3(O)C[C@@H](CO)NC(=O)[C@@H](C(C)C)N2C`, the IC50 [11] is reported as 98 µM, the Ki [12] is reported as 1.4 µM and the LD33 [13] is reported as 89 mg/kg.

Molecule `CO[C@@H](CC[C@H](C)[C@H]1O[C@@]2(C[C@H](OC)[C@@H]1C)OC(CC(=O)O[C@@H]1CC(=O)O[C@@H]1C)=C(C)CC2(C)C)c1cc(O)ccc1Br` has an inhibition at 10 µg/mL [2] of 30%.

`CCCCCCCCC(O)C/C=C/CCC(=O)N(C)C/C(=C\Cl)C/C(=C\C(=O)N1CC(OC)=CC1=O)OC` (stereo not given) gave an IC50 [11] of 2.9 µM and an LD50 [13] of 33.3 mg/kg.

In the case of `CC[C@@H](C)[C@H]1C(=O)N2CCC[C@H]2C(=O)O[C@H](C(C)(C)C)C[C@@H](C)C[C@H](O)[C@@H](C)C2=N[C@@H](/C=C(\C)C(=O)N[C@@H](Cc3ccc(OC)cc3)C(=O)N(C)[C@@H](C)C(=O)N1C)CS2`, the IC50 [1] is reported as 0.19 µM.

With `C=C(CCNC(=O)CC/C=C/C[C@H](CCCCCCCC)OC)[C@@]12O[C@H]1[C@H](O[C@H]1OC[C@H](OC)[C@@H](O)[C@@H]1OC)C=C(C)C2=O` the inhibition [15] was 28%, the IC50 [5] was 4 µM and the IC50 [4] was 4 µM.

In the case of `CO[C@@H](CC[C@H](C)C1O[C@@]2(C=C[C@@H]1C)[C@H](C(=O)O[C@@H]1CC(=O)O[C@@H]1C)C(=O)[C@H](C)CC2(C)C)c1cccc(O)c1` (stereo not given in full), the inhibition at 10 µg/mL [2] is reported as 30%.
